By Km is commonly meant the substrate concentration at which the rate is half of its maximum.

In experiment [1] the test system is recombinant canine GSTT5 (reference). Briefly: spectrophotometric glutathione conjugation assay, Michaelis-Menten fit. The settings on record: co-substrate glutathione (5 mM); pH and temperature not stated. It is filed as biochemical, Canis lupus familiaris.
Experiment [2] has the same test system. The settings on record: co-substrate glutathione (5 mM); pH and temperature not stated.

The structures appear in SMILES notation. Read-outs that look alike come from different tables or passages of the source.

As to `O=[N+]([O-])c1ccc(Cl)c(Cl)c1` [1,2-dichloro-4-nitrobenzene, 1,2‐dichloro‐4‐nitrobenzene], the Km in experiment [1] worked out at 168 ± 27 µM; in experiment [2] it was 164 ± 22 µM.

For the origin of these results see PMC5697189 (Journal of Veterinary Internal Medicine, 2017).
